Earlier results on 1 compound are cited in PubChem BioAssay AID1259409 (Chemical Carcinogenesis Research Information System (CCRIS), 2018).

SMILES strings stand for the structures.

The subject of the data set is rodent chemically induced tumor inhibition, incidence and multiplicity. The data set is described as follows: CCRIS tumor inhibitor studies.

Regarding `CCO`, the “tumour outcome (control, treated, inhibition, significance)” value is listed as 100%, 100%, 0%, not significant (Carcinogen: ETHYL CARBAMATE, 51-79-6, Dose [Inhibitor]: 0, 20% SIMULTANEOUSLY WITH CARCINOGEN 1/D FOR WK (STUDY DURATION: 16 WK), Route [Inhibitor]: GAVAGE, Species: MOUSE, Strain/Sex: NMRI/FEMALE, Target Tissue: Type of Lesion: LUNG: ADENOMA, Dose [Carcinogen]: 180 MG/KG IN 20% ETHANOL 1/D FOR 8 WK (CONTROL GROUP ADMINISTERED CARCINOGEN IN WATER), Promoter: NONE USED); 5%, 5%, 0%, not significant (Carcinogen: ETHYL CARBAMATE, 57-79-6, Dose [Inhibitor]: 0, 12% ADMINISTERED WITH CARCINOGEN IN DRINKING WATER FOR 41 WK (STUDY DURATION: 41 WK), Route [Inhibitor]: ORAL, Species: MOUSE, Strain/Sex: C3H/MALE, Target Tissue: Type of Lesion: LIVER: HEMANGIOENDOTHELIOMA, Dose [Carcinogen]: 10 MG/KG IN DRINKING WATER FOR 41 WK, Promoter: NONE USED); 3/15 (20%), 5/14 (36%), -80%, not significant (Carcinogen: N-METHYL-N'-NITRO-N-NITROSOGUANIDINE, 70-25-7, Dose [Inhibitor]: 0, 10% IN DRINKING WATER FOR 51 WK BEGINNING 1 WK POST CARCINOGEN DOSE, 5% NACL INCLUDED IN THE DIET OF TREATED RATS (ST, Route [Inhibitor]: ORAL, Species: RAT, Strain/Sex: F344/MALE, Target Tissue: Type of Lesion: FORESTOMACH: CARCINOMA IN SITU, Dose [Carcinogen]: 150 MG/KG BW ONCE, Promoter: CATECHOL, 120-89-9); 15/15 (100%), 12/14 (86%), 14%, not significant (Carcinogen: N-METHYL-N'-NITRO-N-NITROSOGUANIDINE, 70-25-7, Dose [Inhibitor]: 0, 10% IN DRINKING WATER FOR 51 WK BEGINNING 1 WK POST CARCINOGEN DOSE, 5% NACL INCLUDED IN THE DIET OF TREATED RATS (ST, Route [Inhibitor]: ORAL, Species: RAT, Strain/Sex: F344/MALE, Target Tissue: Type of Lesion: FORESTOMACH: PAPILLOMA, Dose [Carcinogen]: 150 MG/KG BW ONCE, Promoter: CATECHOL, 120-80-9); 15/15 (100%), 8/14 (57%), 43%, p<0.01 (Carcinogen: N-METHYL-N'-NITRO-N-NITROSOGUANIDINE, 70-25-7, Dose [Inhibitor]: 0, 10% IN DRINKING WATER FOR 51 WK BEGINNING 1 WK POST CARCINOGEN DOSE, 5% NACL INCLUDED IN THE DIET OF TREATED RATS (ST, Route [Inhibitor]: ORAL, Species: RAT, Strain/Sex: F344/MALE, Target Tissue: Type of Lesion: FORESTOMACH: SQUAMOUS CELL CARCINOMA, Dose [Carcinogen]: 150 MG/KG BW ONCE, Promoter: CATECHOL, 120-80-9); 11/15 (73%), 4/14 (29%), 60%, p<0.02 (Carcinogen: N-METHYL-N'-NITRO-N-NITROSOGUANIDINE, 70-25-7, Dose [Inhibitor]: 0, 10% IN DRINKING WATER FOR 51 WK BEGINNING 1 WK POST CARCINOGEN DOSE, 5% NACL INCLUDED IN THE DIET OF TREATED RATS (ST, Route [Inhibitor]: ORAL, Species: RAT, Strain/Sex: F344/MALE, Target Tissue: Type of Lesion: GLANDULAR STOMACH: ADENOCARCINOMA, Dose [Carcinogen]: 150 MG/KG BW ONCE, Promoter: CATECHOL, 120-80-9). Besides, the “tumour outcome (control, treated, inhibition, significance)” value was 15/15 (100%), 13/14 (93%), 7%, not significant (Carcinogen: N-METHYL-N'-NITRO-N-NITROSOGUANIDINE, 70-25-7, Dose [Inhibitor]: 0, 10% IN DRINKING WATER FOR 51 WK BEGINNING 1 WK POST CARCINOGEN DOSE, 5% NACL INCLUDED IN THE DIET OF TREATED RATS (ST, Route [Inhibitor]: ORAL, Species: RAT, Strain/Sex: F344/MALE, Target Tissue: Type of Lesion: GLANDULAR STOMACH: ADENOMA, Dose [Carcinogen]: 150 MG/KG BW ONCE, Promoter: CATECHOL, 120-80-9); 10/26 (38%), 3/13 (23%), 39%, p<0.01 (Carcinogen: N-NITROSOMETHYLBENZYLAMINE, 937-40-6, Dose [Inhibitor]: 1-2% IN LIQUID DIET ON DAY 1 AND INCREASING TO 7% BY DAY 8 OF AGENT TREATMENT AND CONTINUING FOR 12 WK (STUDY DURATION:, Route [Inhibitor]: ORAL, Species: RAT, Strain/Sex: SPRAGUE-DAWLEY/MALE, Target Tissue: Type of Lesion: ESOPHAGUS: PAPILLOMA, Dose [Carcinogen]: 2.5 MG/KG 3/WK FOR 3 WK BEGINNING THE LAST 3 WK OF AGENT TREATMENT, Promoter: NONE USED); 100%, 100%, 0%, not calculated (Carcinogen: URETHANE, 51-79-6, Dose [Inhibitor]: 5% (VOL/VOL) IN DRINKING WATER CONCURRENTLY WITH CARCINOGEN FOR 12 WK (STUDY DURATION: 12 WK), Route [Inhibitor]: ORAL, Species: MOUSE, Strain/Sex: A/PH/FEMALE, Target Tissue: Type of Lesion: LUNG: ADENOMA, Dose [Carcinogen]: 200 PPM IN DRINKING WATER FOR 12 WK, Promoter: NONE USED); 100%, 100%, 0%, not calculated (Carcinogen: URETHANE, 51-79-6, Dose [Inhibitor]: 5% (VOL/VOL) IN DRINKING WATER CONCURRENTLY WITH CARCINOGEN FOR 12 WK (STUDY DURATION: 12 WK), Route [Inhibitor]: ORAL, Species: MOUSE, Strain/Sex: A/PH/FEMALE, Target Tissue: Type of Lesion: LUNG: ADENOMA, Dose [Carcinogen]: 500 PPM IN DRINKING WATER FOR 12 WK, Promoter: NONE USED); 100%, 100%, 0%, not calculated (Carcinogen: URETHANE, 51-79-6, Dose [Inhibitor]: 5% (VOL/VOL) IN DRINKING WATER CONCURRENTLY WITH CARCINOGEN FOR 12 WK (STUDY DURATION: 12 WK), Route [Inhibitor]: ORAL, Species: MOUSE, Strain/Sex: A/PH/FEMALE, Target Tissue: Type of Lesion: LUNG: ADENOMA, Dose [Carcinogen]: 1000 PPM IN DRINKING WATER FOR 12 WK, Promoter: NONE USED); 100%, 80%, 20%, p<0.001 (Carcinogen: URETHANE, 51-79-6, Dose [Inhibitor]: 10% (VOL/VOL) IN DRINKING WATER CONCURRENTLY WITH CARCINOGEN FOR 12 WK (STUDY DURATION: 12 WK), Route [Inhibitor]: ORAL, Species: MOUSE, Strain/Sex: A/PH/FEMALE, Target Tissue: Type of Lesion: LUNG: ADENOMA, Dose [Carcinogen]: 200 PPM IN DRINKING WATER FOR 12 WK, Promoter: NONE USED). In addition, the “tumour outcome (control, treated, inhibition, significance)” value is given as 100%, 100%, 0%, not calculated (Carcinogen: URETHANE, 51-79-6, Dose [Inhibitor]: 10% (VOL/VOL) IN DRINKING WATER CONCURRENTLY WITH CARCINOGEN FOR 12 WK (STUDY DURATION: 12 WK), Route [Inhibitor]: ORAL, Species: MOUSE, Strain/Sex: A/PH/FEMALE, Target Tissue: Type of Lesion: LUNG: ADENOMA, Dose [Carcinogen]: 500 PPM IN DRINKING WATER FOR 12 WK, Promoter: NONE USED); 100%, 100%, 0%, not calculated (Carcinogen: URETHANE, 51-79-6, Dose [Inhibitor]: 10% (VOL/VOL) IN DRINKING WATER CONCURRENTLY WITH CARCINOGEN FOR 12 WK (STUDY DURATION: 12 WK), Route [Inhibitor]: ORAL, Species: MOUSE, Strain/Sex: A/PH/FEMALE, Target Tissue: Type of Lesion: LUNG: ADENOMA, Dose [Carcinogen]: 1000 PPM IN DRINKING WATER FOR 12 WK, Promoter: NONE USED); 100%, 100%, 0%, not calculated (Carcinogen: URETHANE, 51-79-6, Dose [Inhibitor]: 20% (VOL/VOL) IN DRINKING WATER CONCURRENTLY WITH CARCINOGEN FOR 12 WK (STUDY DURATION: 12 WK), Route [Inhibitor]: ORAL, Species: MOUSE, Strain/Sex: A/PH/FEMALE, Target Tissue: Type of Lesion: LUNG: ADENOMA, Dose [Carcinogen]: 200 PPM IN DRINKING WATER FOR 12 WK, Promoter: NONE USED); 100%, 100%, 0%, not calculated (Carcinogen: URETHANE, 51-79-6, Dose [Inhibitor]: 20% (VOL/VOL) IN DRINKING WATER CONCURRENTLY WITH CARCINOGEN FOR 12 WK (STUDY DURATION: 12 WK), Route [Inhibitor]: ORAL, Species: MOUSE, Strain/Sex: A/PH/FEMALE, Target Tissue: Type of Lesion: LUNG: ADENOMA, Dose [Carcinogen]: 500 PPM IN DRINKING WATER FOR 12 WK, Promoter: NONE USED); 100%, 100%, 0%, not calculated (Carcinogen: URETHANE, 51-79-6, Dose [Inhibitor]: 20% (VOL/VOL) IN DRINKING WATER CONCURRENTLY WITH CARCINOGEN FOR 12 WK (STUDY DURATION: 12 WK), Route [Inhibitor]: ORAL, Species: MOUSE, Strain/Sex: A/PH/FEMALE, Target Tissue: Type of Lesion: LUNG: ADENOMA, Dose [Carcinogen]: 1000 PPM IN DRINKING WATER FOR 12 WK, Promoter: NONE USED).
